Laboratory results: patent US20260373186A1 (Mireca Medicines GmbH, priority 2022, published 2026)
Where a name gives a salt, the structure may show the parent alone. Read-outs that look alike come from different tables or passages of the source.

Key:
[1] = In vitro drug release from Compound 221-loaded implants; type: physicochemical; details: implants (hot melt extrusion), 99% PLGA75125 4A and 1% PLGA5050-PEG5K; PBS with 1% Tween 20, 37 °C
Protocol: (§1) Compound 221 and biodegradable polymer excipients including PLGA and PLGA-PEG were weighed and thoroughly premixed in a sealed container. The powder blend was fed into an extruder (HAAKE Twin Screw Compounder, Thermo Fisher Scientific), which was pre-set to a temperature of 80-90 °C and a screw speed of 150 rpm. The blend was heated in the extruder and recirculated in the extruder chamber through an internal loop channel for a pre-set duration (e.g., 2-30 min). The filament was extruded at pre-set screw speed (e.g, 10-300 rpm) through a die, guided by a conveying belt and cut into desired length (3-10 mm) for further testing.
(§2) The drug loading of the implants was quantitated by HPLC.

[2] = In vitro drug release from Compound 221-loaded microparticles; details: 99% PLGA75125 4A and 1% PLGA5050-PEG5K, PBS with 1% Tween 20, 37 °C
[3] = Drug loading of Compound 221-loaded implants (HPLC); type: physicochemical; details: implants (hot melt extrusion), 99% PLGA75125 4A and 1% PLGA5050-PEG5K
Protocol: as §1, §2

[4] = Drug loading of Compound 221-loaded microparticles (HPLC); details: 99% PLGA75125 4A and 1% PLGA5050-PEG5K
[5] = Drug loading of Compound 188-loaded microparticles (HPLC); type: physicochemical; details: 99% PLGA75125 4A and 1% PLGA5050-PEG5K
[6] = In vitro drug release from Compound 188-loaded microparticles; type: physicochemical; details: 99% PLGA75125 4A and 1% PLGA5050-PEG5K, PBS with 1% Tween 20, 37 °C
[7] = test system: photoreceptors of rd1 explants; assay: Photoreceptor cell death in rd1 retinal explants (TUNEL); type: cell-based; details: Mus musculus
From the text: Legend: The animals at the age of postnatal day 5 (PN5) were killed by decapitation and retinas were dissected out with retinal pigment epithelium attached as described previously (Caffe, A. R.; Ahuja, P.; Holmqvist, B.; Azadi, S.; Forsell, J.; Holmqvist, I.; Soderpalm, A. K.; van Veen, T., Mouse retina explants after long-term culture in serum free medium. J Chem Neuroanat 2001, 22 (4), 263-73). The retinas were flattened out on the membranes of commercially available 6-well culture inserts, after which 1.5 ml of a custom made culturing medium was added to each well. These explants were then kept in culture for two days without any treatment after which the test analog of the invention at the desired concentration was added at a medium change at PN7 (“7” in Figure). […]
Legend: Effects of selected analogs at given concentrations of the invention on the cell death of photoreceptors of rd1 explants. The cell death was assessed by so called TUNEL stain on fixated and sectioned material, after which the number of dying cells was counted and analyzed, and compared with that from untreated rd1 explants. In order to allow more direct comparisons between the different analogs and concentrations a ratio of treated/untreated specimens was calculated. […]

[8] = test system: cGMP dependent protein kinase; details: cited from earlier work
[9] = test system: rd1 and rd2 photoreceptors; details: in vivo mouse retinitis pigmentosa models; cited from earlier work
[10] = test system: rd1 and rd2 photoreceptors; details: in vitro; cited from earlier work

O=c1c2nc(Br)n([C@@H]3O[C@@H]4CO[P@@](=O)(S)O[C@H]4[C@H]3O)c2nc2[nH]c(-c3ccccc3)cn12 [Compound 221-BEZ, 8-bromo-(β-phenyl-1,N^2-etheno)guanosine-3′,5′-cyclic monophosphorothioate, Rp-isomer which is N-benzyl-2-(benzylamino)ethan-1-aminium salt]
Release duration [1]: 40 days
Release duration ([2]; target drug loading 30%): 35 days
Compound 221 loading (w/w) [3]: 30.0%
Compound 221 loading (w/w) ([4]; target drug loading 30%): 14.0%

Cc1ccc(-c2cn3c(=O)c4nc(Br)n([C@@H]5O[C@@H]6CO[P@@](=O)(S)O[C@H]6[C@H]5O)c4nc3[nH]2)cc1 [Compound 188-BEZ, 8-bromo-(4-methyl-β-phenyl-1,N^2-etheno)guanosine-3′,5′-cyclic monophosphorothioate, Rp-isomer, N-benzyl-2-(benzylamino)ethan-1-aminium salt]
Compound 188 loading (w/w) ([5]; target drug loading 20%): 19.6%
Release duration: % released in 49 days ([6]; target drug loading 20%, in 49 days): 32% released

O=c1c2nc(Br)n([C@@H]3O[C@@H]4CO[P@@](O)(=S)O[C@H]4[C@H]3O)c2nc2[nH]c(-c3ccccc3)cn12 [Rp-8-Br-PET-cGMPS]
photoreceptor cell death, % of untreated at 50 µM ([7]; TUNEL, untreated = 1.0, n = 8, read-out: effect ratio of treated/untreated specimens (photoreceptor cell death)): ~78%
inhibition at 50 µM ([7]; vs untreated, read-out: reduction of photoreceptor cell death): > 20%
efficacy / agonistic properties [8]: suboptimal efficacies or even partially agonistic properties

Cc1ccc(-c2cn3c(=O)c4nc(Br)n([C@@H]5O[C@@H]6CO[P@@](=O)(S)O[C@H]6[C@H]5O)c4nc3[nH]2)cc1 [Compound 188-Ca]
Compound 188 loading (w/w) ([5]; target drug loading 30%): 3%

O=c1c2nc(Br)n([C@@H]3O[C@@H]4CO[P@@](=O)(S)O[C@H]4[C@H]3O)c2nc2[nH]c(-c3ccccc3)cn12 [Compound 221-TEA]
Release duration [1]: 40 days
Release duration ([2]; target drug loading 10%): 35 days
Compound 221 loading (w/w) [3]: 15.75%
Compound 221 loading (w/w) ([4]; target drug loading 10%): 1.8%

O=c1c2nc(Br)n([C@@H]3O[C@@H]4CO[P@@](=O)(S)O[C@H]4[C@H]3O)c2nc2[nH]c(-c3ccccc3)cn12 [Compound 221-Ca]
Release duration [1]: 40 days
Compound 221 loading (w/w) [3]: 30.0%

O=c1c2nc(Br)n([C@@H]3O[C@@H]4CO[P@@](=O)(S)O[C@H]4[C@H]3O)c2nc2[nH]c(-c3ccccc3)cn12 [Compound 221-Na]
Release duration [1]: 14 days
Compound 221 loading (w/w) [3]: 17.4%

Nc1nc2c(nc(Br)n2[C@@H]2O[C@@H]3COP(O)(=S)O[C@H]3[C@H]2O)c(=O)[nH]1 (stereo partly drawn) [Rp-8-Br-cGMPS]
protection for rd1 and rd2 photoreceptors [9]: some protection
protection for rd1 and rd2 photoreceptors [10]: some protection

O=c1c2nc(Br)n([C@@H]3O[C@@H]4CO[P@@](=O)(S)O[C@H]4[C@H]3O)c2nc2[nH]c(-c3ccccc3)cn12 [Compound 221-BEN, 8-bromo-(β-phenyl-1,N^2-etheno)guanosine-3′,5′-cyclic monophosphorothioate, Rp-isomer, N-benzyl-2-phenylethan-1-aminium salt]
Release duration [1]: 40 days
Release duration ([2]; target drug loading 30%): 43 days
Compound 221 loading (w/w) [3]: 30.0%
Compound 221 loading (w/w) ([4]; target drug loading 30%): 22.5%

Cc1ccc(-c2cn3c(=O)c4nc(Br)n([C@@H]5O[C@@H]6CO[P@@](=O)(S)O[C@H]6[C@H]5O)c4nc3[nH]2)cc1 [Compound 188-BEN, 8-bromo-(4-methyl-β-phenyl-1,N^2-etheno)guanosine-3′,5′-cyclic monophosphorothioate, Rp-isomer, N-benzyl-2-phenylethan-1-aminium salt]
Compound 188 loading (w/w) ([5]; target drug loading 30%): 26%
Release duration ([6]; target drug loading 30%): 29 days

O=c1c2nc(Br)n([C@@H]3O[C@@H]4CO[P@@](=O)(S)O[C@H]4[C@H]3O)c2nc2[nH]c(-c3ccccc3)cn12 [Compound 221-FA]
Release duration [1]: 26 days
Release duration ([2]; target drug loading 10%): 22 days
Compound 221 loading (w/w) [3]: 10.5%
Compound 221 loading (w/w) ([4]; target drug loading 10%): 1.2%
